Assay [1] relates to MRSA. In words: Antibacterial MIC, microbroth dilution, MRSA. The assay is classed as cell-based, S. aureus. The following applies: Staphylococcus aureus, MRSA; microbroth dilution. How it is done:
(§1) To investigate this possibility, the antibacterial effects of the DNM derivatives was assessed against strains of E. coli, S. aureus, and MRSA using the microbroth dilution method (Table 2).
(In general: In broth dilution the organism is exposed to a series of concentrations in liquid medium.)

The target in assay [2] is Top2α (Homo sapiens, UniProt P11388). Briefly: Top2α kDNA decatenation assay. Type of assay: biochemical. The following applies: gel electrophoresis, FIG. 3a. The text has this: (§2) FIG. 3. DNM derivatives are dual Top1/Top2 inhibitors with different modes of inhibition. (a) Inhibition of decatenating ability of Top2α with increasing concentrations of ETP, 6DNM-NH3, 6DNM-Pyr, and Ph-6DNM-NH3. K, kinetoplast DNA; OC, open circular; R, relaxed. (b) Inhibition of relaxing ability of Top1 with increasing concentrations of CPT, 6DNM-NH3, 6DNM-Pyr, and Ph-6DNM-NH3. R, relaxed; S, supercoiled. (c) Detection of Top2a-DNA using the ICE Assay. Genomic DNA ([…]) of H460 cells treated with drugs (50 μM, 30 min) was applied to nitrocellulose membrane and immunoblotted for Top2a. (d) Detection of Top1-DNA adducts using ICE Assay. Same procedure as (c) using 1 μg of DNA. (e) Inhibition of ETP-induced poisoning of Top2a. H460 cells treated with indicated concentrations of inhibitor for 30 min prior to treatment with ETP (50 μM). Detection of Top2α as in (c).
Top2α, sequence (P11388 whole entry): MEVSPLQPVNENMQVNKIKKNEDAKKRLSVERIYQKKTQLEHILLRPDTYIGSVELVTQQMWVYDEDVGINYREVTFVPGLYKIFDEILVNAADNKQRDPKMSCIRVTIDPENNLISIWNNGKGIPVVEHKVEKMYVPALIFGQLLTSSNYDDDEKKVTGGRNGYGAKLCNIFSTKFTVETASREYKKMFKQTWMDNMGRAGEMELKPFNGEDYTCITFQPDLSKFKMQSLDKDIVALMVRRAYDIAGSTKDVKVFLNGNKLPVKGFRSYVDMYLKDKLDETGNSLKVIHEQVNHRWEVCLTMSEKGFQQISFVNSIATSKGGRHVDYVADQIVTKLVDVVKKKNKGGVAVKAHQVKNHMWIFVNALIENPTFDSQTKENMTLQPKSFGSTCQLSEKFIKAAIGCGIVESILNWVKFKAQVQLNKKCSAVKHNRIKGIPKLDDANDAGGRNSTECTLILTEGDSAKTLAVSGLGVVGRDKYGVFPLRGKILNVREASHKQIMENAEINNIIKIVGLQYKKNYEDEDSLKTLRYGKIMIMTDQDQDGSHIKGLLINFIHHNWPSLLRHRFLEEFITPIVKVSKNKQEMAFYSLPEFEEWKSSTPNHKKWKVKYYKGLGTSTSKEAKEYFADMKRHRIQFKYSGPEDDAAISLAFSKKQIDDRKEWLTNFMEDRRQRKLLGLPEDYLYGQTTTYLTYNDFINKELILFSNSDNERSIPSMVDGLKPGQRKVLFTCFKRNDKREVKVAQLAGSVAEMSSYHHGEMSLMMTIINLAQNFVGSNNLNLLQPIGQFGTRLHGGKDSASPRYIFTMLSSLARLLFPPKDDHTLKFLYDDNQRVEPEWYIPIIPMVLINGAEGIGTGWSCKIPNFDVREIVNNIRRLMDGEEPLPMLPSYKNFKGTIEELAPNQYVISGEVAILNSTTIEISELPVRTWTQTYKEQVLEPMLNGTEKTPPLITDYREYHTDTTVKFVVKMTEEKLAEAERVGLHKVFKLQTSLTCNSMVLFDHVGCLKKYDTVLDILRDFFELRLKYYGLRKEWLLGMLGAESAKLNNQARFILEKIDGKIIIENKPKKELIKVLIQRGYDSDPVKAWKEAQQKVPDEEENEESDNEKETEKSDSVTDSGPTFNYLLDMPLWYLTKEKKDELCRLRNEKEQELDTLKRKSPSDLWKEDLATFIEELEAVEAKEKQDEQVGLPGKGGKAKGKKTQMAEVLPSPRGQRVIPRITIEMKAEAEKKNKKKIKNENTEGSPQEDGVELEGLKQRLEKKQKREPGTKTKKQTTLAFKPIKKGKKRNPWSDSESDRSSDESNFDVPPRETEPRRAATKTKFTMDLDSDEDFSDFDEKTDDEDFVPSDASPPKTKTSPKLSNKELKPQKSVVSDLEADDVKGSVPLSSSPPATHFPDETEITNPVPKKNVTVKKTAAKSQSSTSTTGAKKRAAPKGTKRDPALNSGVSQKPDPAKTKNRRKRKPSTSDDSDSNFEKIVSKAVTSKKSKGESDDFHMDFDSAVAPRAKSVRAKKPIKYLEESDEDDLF
FIG. 9. Mechanism of action studies: Topoisomerases form transient covalent complexes with DNA to modify DNA topology. Ph6DNM-NH3 and 6DNM-NH3 inhibit bacterial DNA gyrase and human topoisomerase II in vitro.
The ability of Ph-6DNM-NH3, 6DNM-NH3, and 6DNM-Pyr to inhibit Top2α was assessed using a decatenation assay. In this assay, Top2α is incubated with kinetoplast DNA (kDNA), a large network of catenated minicircles and maxicircles of DNA. As Top2α decatenates the kDNA, it releases supercoiled and relaxed DNA minicircles that are easily separated from the kDNA by gel electrophoresis.

In assay [3] the test system is S. aureus. Briefly: Antibacterial MIC, microbroth dilution, S. aureus. Type of assay: cell-based. The procedure:
as §1

Assay [4] addresses T1, Top2cc (Homo sapiens, UniProt P11388).
T1 construct: endogenous in cells; host or cells: H460
Briefly: ICE assay for Top2α-DNA complexes in H460 cells. The assay is classed as cell-based.
Excerpt: as §2
(§3) The in vivo complex of enzyme (ICE) assay can be used to distinguish poisons from catalytic inhibitors. The ICE assay consists of isolating the genomic DNA of cells treated with small molecules in a manner the preserves covalent DNA-protein complexes and applying it to nitrocellulose membranes. Because topoisomerase poisons stabilize the cleavage complexes, DNA-protein complexes can be detected by immunoblotting for specific topoisomerases, whereas catalytic inhibitors produce no such result. To determine if DNM derivatives are acting as poisons or catalytic inhibitors, H460 human lung cells were exposed to 50 μM of the Top2 poison ETP, Ph-6DNM-NH3, 6DNM-NH3, and 6DNM-Pyr and assessed for their ability to stabilize Top2cc. […] In a similar fashion, next investigated was the mode of Top1 inhibition using the ICE assay (FIG. 3b).

For assay [5], the system named is E. coli. In words: Antibacterial MIC, microbroth dilution, E. coli. The assay is classed as cell-based. How it is done: as §1
Assay [6] deals with T2, Top1cc (Homo sapiens, UniProt P11387).
T2 construct: endogenous in cells; host or cells: H460
T2 sequence (P11387 2-765 limits assumed): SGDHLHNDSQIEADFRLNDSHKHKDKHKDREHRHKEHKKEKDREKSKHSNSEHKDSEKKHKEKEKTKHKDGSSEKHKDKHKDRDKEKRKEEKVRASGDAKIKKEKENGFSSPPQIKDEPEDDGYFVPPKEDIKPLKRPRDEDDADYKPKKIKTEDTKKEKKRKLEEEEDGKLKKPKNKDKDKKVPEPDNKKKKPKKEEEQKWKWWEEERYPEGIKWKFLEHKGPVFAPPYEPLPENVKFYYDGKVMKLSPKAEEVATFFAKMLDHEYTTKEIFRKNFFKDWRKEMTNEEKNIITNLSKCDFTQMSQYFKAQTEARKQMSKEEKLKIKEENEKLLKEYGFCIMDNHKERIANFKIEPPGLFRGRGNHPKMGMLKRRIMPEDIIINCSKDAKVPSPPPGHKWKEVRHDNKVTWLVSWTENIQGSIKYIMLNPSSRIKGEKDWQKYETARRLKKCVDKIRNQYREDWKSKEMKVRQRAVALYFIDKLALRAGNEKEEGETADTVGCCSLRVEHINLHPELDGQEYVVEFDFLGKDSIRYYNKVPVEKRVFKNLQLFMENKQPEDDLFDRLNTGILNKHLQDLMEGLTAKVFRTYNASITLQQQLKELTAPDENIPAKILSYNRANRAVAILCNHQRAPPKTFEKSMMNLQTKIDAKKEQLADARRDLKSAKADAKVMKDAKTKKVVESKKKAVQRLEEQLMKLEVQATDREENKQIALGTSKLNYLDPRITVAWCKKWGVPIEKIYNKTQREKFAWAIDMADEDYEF
In words: ICE assay for Top1-DNA adducts in H460 cells. Type of assay: cell-based.
Excerpt: as §2, §3

Assay [7] deals with E. coli TopoIV (Escherichia coli, UniProt P0AFI2+P20083). Briefly: E. coli TopoIV decatenation assay. Type of assay: biochemical. From the text:
(§4) FIG. 8. In vitro inhibitory activity of 6DNM-NH3, Ph-6DNM-NH3 against E. coli DNA gyrase and TopoIV.
(§5) DNM and its derivatives exert their antibacterial effects through inhibition of the DNA Gyrase.

The target in assay [8] is T3, Top1 (Homo sapiens, UniProt P11387).
T3 sequence (P11387 1-765): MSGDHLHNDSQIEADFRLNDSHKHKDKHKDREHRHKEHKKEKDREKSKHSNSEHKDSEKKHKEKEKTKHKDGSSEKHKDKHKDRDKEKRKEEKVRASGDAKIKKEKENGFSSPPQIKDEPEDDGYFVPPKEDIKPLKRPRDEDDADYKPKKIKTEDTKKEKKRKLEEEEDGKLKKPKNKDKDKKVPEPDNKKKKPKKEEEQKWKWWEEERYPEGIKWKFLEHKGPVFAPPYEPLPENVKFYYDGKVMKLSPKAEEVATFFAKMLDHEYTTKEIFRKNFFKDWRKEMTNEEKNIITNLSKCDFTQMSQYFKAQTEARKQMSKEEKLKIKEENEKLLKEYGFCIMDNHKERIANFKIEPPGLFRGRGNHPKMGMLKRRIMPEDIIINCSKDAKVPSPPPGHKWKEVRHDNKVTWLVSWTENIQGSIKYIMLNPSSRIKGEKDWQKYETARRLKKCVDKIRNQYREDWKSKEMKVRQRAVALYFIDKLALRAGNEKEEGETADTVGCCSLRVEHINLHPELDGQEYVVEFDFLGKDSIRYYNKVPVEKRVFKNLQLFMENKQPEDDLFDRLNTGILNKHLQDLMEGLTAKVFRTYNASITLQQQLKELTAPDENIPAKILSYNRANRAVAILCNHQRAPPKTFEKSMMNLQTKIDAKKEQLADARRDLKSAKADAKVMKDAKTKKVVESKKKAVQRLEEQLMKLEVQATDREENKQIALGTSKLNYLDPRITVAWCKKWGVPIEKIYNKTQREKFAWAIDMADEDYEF
In words: Top1 DNA relaxation assay (pBR322). Type of assay: biochemical. The following applies: supercoiled pBR322, FIG. 3b.
Excerpt: as §2
To further investigate any mechanistic differences between these structurally related DNM analogues they were also evaluated against the other clinically-targeted mammalian topoisomerase, Top1, using a DNA relaxation assay in which purified Top1 relaxes supercoiled pBR322 and the two forms are separated by agarose gel electrophoresis.

Assay [9] has as its target E. coli DNA Gyrase (Escherichia coli, UniProt P0AES4+P0AES6). Briefly: E. coli DNA Gyrase supercoiling assay. The assay is classed as biochemical.
Excerpt: as §4, §5

Assay [10] relates to MDA-MB-231 triple negative breast cancer cells. Briefly: Antiproliferative SRB assay, MDA-MB-231. The assay is classed as cell-based. The following applies: SRB assay, 72 hour compound exposure, mean ± SEM; read-out: MDA-MB-231 IC50. How it is done: FIG. 1. […] Cell death measured by SRB assay after 72 hour of compound exposure (n≥3 biological replicates, error bars show SEM). IC50 values given as mean±SEM from ≥3 biological replicates.
To investigate the feasibility of developing a class of antitumor antibiotics based upon the DNM scaffold, the ability of the DNM to exert an antiproliferative effect against MDA-MB-231 breast cancer cells was evaluated.

In brackets after ≈: the same amount, converted by molar mass.

T1 sequence (P11388 whole entry): as the sequence (P11388 whole entry) above
E. coli TopoIV, sequence (P0AFI2 whole entry): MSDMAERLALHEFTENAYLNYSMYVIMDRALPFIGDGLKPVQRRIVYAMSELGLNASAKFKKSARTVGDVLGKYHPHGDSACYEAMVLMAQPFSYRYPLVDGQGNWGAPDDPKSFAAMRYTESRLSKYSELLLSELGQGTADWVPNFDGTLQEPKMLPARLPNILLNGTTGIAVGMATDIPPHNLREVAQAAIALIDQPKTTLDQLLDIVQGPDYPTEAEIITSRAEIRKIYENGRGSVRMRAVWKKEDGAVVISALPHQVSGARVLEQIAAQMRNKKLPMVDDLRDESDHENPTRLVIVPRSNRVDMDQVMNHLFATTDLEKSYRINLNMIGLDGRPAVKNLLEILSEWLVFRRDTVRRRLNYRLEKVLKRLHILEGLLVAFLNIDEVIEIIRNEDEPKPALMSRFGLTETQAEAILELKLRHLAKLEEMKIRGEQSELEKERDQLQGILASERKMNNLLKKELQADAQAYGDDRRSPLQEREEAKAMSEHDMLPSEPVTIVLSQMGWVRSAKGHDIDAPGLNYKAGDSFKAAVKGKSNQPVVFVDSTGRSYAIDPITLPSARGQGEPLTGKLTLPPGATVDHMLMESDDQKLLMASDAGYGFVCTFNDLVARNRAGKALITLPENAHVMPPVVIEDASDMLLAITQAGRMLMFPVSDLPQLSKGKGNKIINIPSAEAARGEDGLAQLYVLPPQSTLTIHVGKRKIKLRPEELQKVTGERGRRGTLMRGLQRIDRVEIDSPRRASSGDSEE
E. coli TopoIV, sequence (P20083 whole entry): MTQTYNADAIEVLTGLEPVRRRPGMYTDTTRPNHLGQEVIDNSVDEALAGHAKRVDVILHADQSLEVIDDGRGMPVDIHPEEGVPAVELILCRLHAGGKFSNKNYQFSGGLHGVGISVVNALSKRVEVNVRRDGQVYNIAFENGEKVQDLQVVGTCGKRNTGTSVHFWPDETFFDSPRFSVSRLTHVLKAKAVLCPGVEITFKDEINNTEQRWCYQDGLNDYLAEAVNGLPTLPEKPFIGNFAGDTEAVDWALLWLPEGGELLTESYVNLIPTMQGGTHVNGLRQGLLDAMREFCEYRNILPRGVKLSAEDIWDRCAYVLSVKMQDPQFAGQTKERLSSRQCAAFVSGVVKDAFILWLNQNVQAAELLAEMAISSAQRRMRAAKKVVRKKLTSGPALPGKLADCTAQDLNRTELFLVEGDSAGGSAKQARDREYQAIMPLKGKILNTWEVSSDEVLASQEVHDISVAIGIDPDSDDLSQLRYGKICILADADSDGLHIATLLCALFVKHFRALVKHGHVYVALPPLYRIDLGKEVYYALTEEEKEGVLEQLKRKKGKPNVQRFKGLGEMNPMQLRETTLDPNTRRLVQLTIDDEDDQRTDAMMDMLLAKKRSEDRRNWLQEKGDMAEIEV
E. coli DNA Gyrase, sequence (P0AES4 whole entry, one chain of several): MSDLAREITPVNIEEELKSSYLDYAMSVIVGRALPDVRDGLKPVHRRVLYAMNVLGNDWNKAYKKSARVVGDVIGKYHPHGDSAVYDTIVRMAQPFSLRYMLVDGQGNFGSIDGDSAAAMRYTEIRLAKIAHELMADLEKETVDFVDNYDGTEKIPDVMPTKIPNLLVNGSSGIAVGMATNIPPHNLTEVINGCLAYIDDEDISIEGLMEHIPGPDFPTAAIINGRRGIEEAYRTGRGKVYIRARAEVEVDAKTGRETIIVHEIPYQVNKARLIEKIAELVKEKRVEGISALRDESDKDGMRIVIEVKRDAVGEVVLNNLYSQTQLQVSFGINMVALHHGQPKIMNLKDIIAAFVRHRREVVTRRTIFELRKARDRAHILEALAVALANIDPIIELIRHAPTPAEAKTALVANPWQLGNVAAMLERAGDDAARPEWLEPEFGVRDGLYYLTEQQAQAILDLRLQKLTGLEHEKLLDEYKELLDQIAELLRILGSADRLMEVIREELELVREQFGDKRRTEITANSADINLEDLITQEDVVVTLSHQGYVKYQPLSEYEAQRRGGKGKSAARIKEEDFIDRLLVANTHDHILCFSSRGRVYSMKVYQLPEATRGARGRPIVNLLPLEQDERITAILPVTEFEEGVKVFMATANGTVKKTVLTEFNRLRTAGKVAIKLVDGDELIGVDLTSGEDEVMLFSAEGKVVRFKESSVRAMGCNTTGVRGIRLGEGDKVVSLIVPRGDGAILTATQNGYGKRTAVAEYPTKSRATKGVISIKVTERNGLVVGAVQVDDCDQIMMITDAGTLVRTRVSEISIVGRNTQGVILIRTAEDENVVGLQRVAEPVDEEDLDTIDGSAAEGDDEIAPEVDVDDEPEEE

Consider `Cc1cc(=O)n(C)c2c3c4c(cc12)c(C)cc(=O)n4C(CN)CO3` (stereo not drawn) [Compound 9], for which 0.03 µg/mL (≈ 0.0922 µM) was the least that counted as inhibitory in assay [1] (MIC). Moreover, in assay [2], the “Inhibition of decatenating function of Top2α” value is on record as “inhibit the decatenating function of Top2α in a dose-dependent manner”. In [3], the “S. aureus MIC” value turned out to be 0.5 µg/mL. The “Accumulation of Top2cc (ICE assay)” value in assay [4] (50 μM) is “only ETP treatment resulted in the accumulation of Top2cc”. In addition, the “Effect on ETP-induced Top2cc” value in assay [4] (pre-treatment 30 minutes prior to ETP (50 μM)) is recorded as “dose-dependent decrease in ETP-induced Top2cc”. The “E. coli MIC” value in [5] came to 0.5 µg/mL. Moreover, in [6] (H460 cells, 50 μM, 30 min), the “Accumulation of Top1cc (ICE assay)” value is recorded as “neither 6DNM-NH3 nor 6DNM-Pyr, leads to the accumulation of Top1cc”. Moreover, the “Mode of topoisomerase inhibition” value in assay [6] (in vitro and cell culture experiments taken together) is given as “dual Top1/Top2α catalytic inhibitors”. For the same compound, the “Inhibition of purified E. coli TopoIV” value in assay [7] was “able to inhibit”. The “Inhibition of Top1 relaxation” value in [8] is recorded as “inhibit relaxation at submicromolar concentrations”. In [9], the “Inhibition of purified E. coli DNA Gyrase” value was “able to inhibit”. In [10], the IC50 amounted to 220 ± 20 nM.

The MIC is the lowest concentration that inhibits growth of the organism. Lower therefore signals greater potency. As a reminder, the IC50 is the concentration that gives 50% inhibition.

For the origin of these results see patent publication US11274106B2, “Topoisomerase inhibitors with antibacterial and anticancer activity” (THE BOARD OF TRUSTEES OF THE UNIVERSITY OF ILLINOIS, priority 2017, dated 2022).
